Measurements taken from US20090029992A1, “SUBSTITUTED PYRAZOLE COMPOUNDS” (priority 2007, published 2009).

Assays:
[1] = target: T1, N-terminal His-tagged human Src (Homo sapiens, UniProt P12931); test: Src kinase inhibition assay (33P-ATP filter assay); assay type: biochemical
T1 construct: His (N); purchased Upstate USA Inc, 706 Forest Street, Charlottesville, Va

[2] = target: T2, N-terminal His6-tagged recombinant human KDR, residues 790-end (Homo sapiens, UniProt P35968); test: KDR kinase inhibition assay (33P-ATP filter assay); assay type: biochemical
T2 construct: recombinant human KDR, residues 790-end; His6 (N); purchased Upstate USA Inc, 706 Forest Street, Charlottesville, Va
T2 sequence (P35968 790-1356 limits assumed): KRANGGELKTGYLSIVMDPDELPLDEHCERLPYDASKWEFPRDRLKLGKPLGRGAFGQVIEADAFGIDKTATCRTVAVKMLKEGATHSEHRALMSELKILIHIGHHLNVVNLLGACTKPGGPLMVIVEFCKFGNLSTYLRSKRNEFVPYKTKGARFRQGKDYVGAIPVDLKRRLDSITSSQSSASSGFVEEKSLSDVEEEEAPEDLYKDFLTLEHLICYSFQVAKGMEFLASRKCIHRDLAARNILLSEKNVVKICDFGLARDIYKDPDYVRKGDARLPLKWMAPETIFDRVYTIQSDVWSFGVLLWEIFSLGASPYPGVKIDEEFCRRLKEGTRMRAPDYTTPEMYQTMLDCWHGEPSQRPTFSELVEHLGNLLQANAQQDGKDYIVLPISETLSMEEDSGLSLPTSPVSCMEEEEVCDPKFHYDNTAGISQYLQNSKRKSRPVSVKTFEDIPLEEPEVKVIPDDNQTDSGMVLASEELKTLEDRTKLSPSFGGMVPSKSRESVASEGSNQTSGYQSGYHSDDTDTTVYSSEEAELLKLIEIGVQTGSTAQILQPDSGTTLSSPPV
Summary of the method: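 Radiometric filter assay: reaction started with Mg acetate (10 mM)/[γ-33P]ATP mix, run 40 min at room temperature in 8 mM MOPS pH 7.0 with 0.2 mM EDTA, MBP substrate (0.33 mg/mL) and recombinant KDR 790-end (5-10 mU). Phosphate incorporation by scintillation counting of P30 filtermats, compared with uninhibited reactions.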

HCT116 cells = test: Whole cell cytotoxicity assay, Sulforhodamine B; assay type: cell-based; details: Homo sapiens, HCT-116, HCT116, 96 hours incubation, SRB; for IC50: read-out: IC50 values in this assay (HCT116 cell growth); for GI50: read-out: GI50 HCT116 cell growth
Summary of the method: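 HCT116 cells (500/well) in DMEM/10% FBS/2 mM glutamine were preincubated 24 h, then exposed to compound for 96 h at 37 °C, 5% CO2, in duplicate. Cells were fixed with TCA and stained with sulforhodamine B (A570). GI50, TGI and LC50 were derived relative to a time-zero plate and an untreated control.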

[3] = group with IC50 greater than 100 nM

T1 sequence (P12931 whole entry): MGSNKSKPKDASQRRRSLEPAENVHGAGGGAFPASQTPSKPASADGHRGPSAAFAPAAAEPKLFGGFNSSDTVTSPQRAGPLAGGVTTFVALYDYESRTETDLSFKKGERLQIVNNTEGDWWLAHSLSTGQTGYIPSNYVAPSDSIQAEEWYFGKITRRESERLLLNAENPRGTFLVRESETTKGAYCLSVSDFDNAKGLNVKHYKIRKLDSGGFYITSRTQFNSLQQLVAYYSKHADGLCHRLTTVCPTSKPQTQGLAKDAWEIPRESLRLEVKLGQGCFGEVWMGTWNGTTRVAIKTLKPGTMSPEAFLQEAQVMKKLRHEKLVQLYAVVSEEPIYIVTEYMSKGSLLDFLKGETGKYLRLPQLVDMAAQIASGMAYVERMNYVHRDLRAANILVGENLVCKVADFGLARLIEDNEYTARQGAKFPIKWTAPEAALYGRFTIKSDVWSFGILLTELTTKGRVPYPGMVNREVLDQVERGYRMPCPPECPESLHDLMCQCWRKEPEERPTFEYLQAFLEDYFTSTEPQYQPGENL

| Structure (SMILES) | IC50 [1, 3] [µM] | IC50 [2, 3] [µM] | IC50 (HCT116 cells) [µM] | IC50 ([1]; 40 minutes at room temperature) [µM] | GI50 (HCT116 cells) [µM] | IC50 ([2]; 40 minutes at room temperature) [µM] |
| --- | --- | --- | --- | --- | --- | --- |
| Cc1cc(Nc2cc(N3CCN(C)CC3)nc(-c3cccc4c3OCCO4)n2)n[nH]1 [Example 136, 2-(2,3-dihydrobenzo[b][1,4]dioxin-5-yl)-N-(5-methyl-1H-pyrazol-3-yl)-6-(4-methylpiperazin-1-yl)pyrimidin-4-amine] | ≤ 1 | ≤ 1 | 1 to 10 |  |  |  |
| COCCN(C)c1cc(Nc2cc(C)[nH]n2)nc(-c2cccc3ccccc23)n1 [Example 148, N^4-(2-methoxyethyl)-N^4-methyl-N^6-(5-methyl-1H-pyrazol-3-yl)-2-(naphthalen-1-yl)pyrimidine-4,6-diamine] | ≤ 1 | ≤ 1 | 1 to 10 |  |  |  |
| Cc1cc(Nc2cc(NC3CCOCC3)nc(-c3ccccc3C(F)(F)F)n2)n[nH]1 [Compound 81, N^4-(5-methyl-1H-pyrazol-3-yl)-N^6-(tetrahydro-2H-pyran-4-yl)-2-(2-(trifluoromethyl)phenyl)pyrimidine-4,6-diamine] | ≤ 1 | ≤ 1 | 1 to 10 |  |  |  |
| Cc1cc(Nc2cc(N(C)CCN(C)C)nc(-c3ccc4c(c3)OCO4)n2)n[nH]1 [Example 146, 2-(benzo[d][1,3]dioxol-5-yl)-N^4-(2-(dimethylamino)ethyl)-N^4-methyl-N^6-(5-methyl-1H-pyrazol-3-yl)pyrimidine-4,6-diamine] |  | ≤ 1 |  | ≤ 0.1 | ≤ 1 |  |
| COCCN(C)c1cc(Nc2cc(C)[nH]n2)nc(-c2cccc3c2OCCO3)n1 [Example 150, 2-(2,3-dihydrobenzo[b][1,4]dioxin-5-yl)-N^4-(2-methoxyethyl)-N^4-methyl-N^6-(5-methyl-1H-pyrazol-3-yl)pyrimidine-4,6-diamine] |  | ≤ 1 | 1 to 10 |  |  |  |
| Cc1cc(Nc2cc(NC3CCOCC3)nc(-c3ccc(C(C)(C)C)cc3)n2)n[nH]1 [Compound 70, 2-(4-tert-butylphenyl)-N^4-(5-methyl-1H-pyrazol-3-yl)-N^6-(tetrahydro-2H-pyran-4-yl)pyrimidine-4,6-diamine] | ≤ 1 | ≤ 1 | 1 to 10 |  |  |  |
| COCCN(C)c1cc(Nc2cc(C)[nH]n2)nc(-c2ccc3ccccc3c2)n1 [Example 149, N^4-(2-methoxyethyl)-N^4-methyl-N^6-(5-methyl-1H-pyrazol-3-yl)-2-(naphthalen-2-yl)pyrimidine-4,6-diamine] | ≤ 1 | ≤ 1 | 1 to 10 |  |  |  |
| COCCN(C)c1cc(Nc2cc(C)[nH]n2)nc(-c2ccccc2C(F)(F)F)n1 [Example 126, N^4-(2-methoxyethyl)-N^4-methyl-N^6-(5-methyl-1H-pyrazol-3-yl)-2-(2-(trifluoromethyl)phenyl)pyrimidine-4,6-diamine] |  | ≤ 1 | 1 to 10 |  |  |  |
| Cc1cc(Nc2cc(NC3CCOCC3)nc(-c3cccc4ccccc34)n2)n[nH]1 [Example 127, N^4-(5-methyl-1H-pyrazol-3-yl)-2-(naphthalen-1-yl)-N^6-(tetrahydro-2H-pyran-4-yl)pyrimidine-4,6-diamine] | ≤ 1 | ≤ 1 | 1 to 10 |  |  |  |
| Cc1cc(Nc2cc(N3CCN(C)CC3)nc(-c3ccc(-c4ccccc4)cc3)n2)n[nH]1 [Example 157, 2-(biphenyl-4-yl)-N-(5-methyl-1H-pyrazol-3-yl)-6-(4-methylpiperazin-1-yl)pyrimidin-4-amine] |  | ≤ 1 |  | ≤ 0.1 | ≤ 1 |  |
| Cc1cc(Nc2cc(N3CCN(C)CC3)nc(-c3cc(F)cc(Cl)c3)n2)n[nH]1 [Compound 97] | ≤ 1 | ≤ 1 |  |  | ≤ 1 |  |
| Cc1cc(Nc2cc(N(C)CCN(C)C)nc(-c3cccc(C(F)(F)F)c3)n2)n[nH]1 [Compound 113, N^4-(2-(dimethylamino)ethyl)-N^4-methyl-N^6-(5-methyl-1H-pyrazol-3-yl)-2-(3-(trifluoromethyl)phenyl)pyrimidine-4,6-diamine] |  | ≤ 1 |  | ≤ 0.1 | ≤ 1 |  |
| Cc1cc(Nc2cc(NC3CCOCC3)nc(-c3ccc(C(F)(F)F)cc3)n2)n[nH]1 [Compound 79, N^4-(5-methyl-1H-pyrazol-3-yl)-N^6-(tetrahydro-2H-pyran-4-yl)-2-(4-(trifluoromethyl)phenyl)pyrimidine-4,6-diamine] | ≤ 1 |  | 1 to 10 |  |  |  |
| Cc1cc(Nc2cc(N3CCN(C)CC3)nc(-c3ccc(C(F)(F)F)cc3)n2)n[nH]1 [Compound 100] | ≤ 1 |  | 1 to 10 |  |  |  |
| COCCN(C)c1cc(Nc2cc(C)[nH]n2)nc(-c2cccc(C(F)(F)F)c2)n1 [Compound 125, N^4-(2-methoxyethyl)-N^4-methyl-N^6-(5-methyl-1H-pyrazol-3-yl)-2-(3-(trifluoromethyl)phenyl)pyrimidine-4,6-diamine] | ≤ 1 | ≤ 1 | 1 to 10 |  |  |  |
| Cc1cc(Nc2cc(NC3CCOCC3)nc(-c3cccc(C(F)(F)F)c3)n2)n[nH]1 [Compound 80, N^4-(5-methyl-1H-pyrazol-3-yl)-N^6-(tetrahydro-2H-pyran-4-yl)-2-(3-(trifluoromethyl)phenyl)pyrimidine-4,6-diamine] | ≤ 1 | ≤ 1 | 1 to 10 |  |  |  |
| COCCN(C)c1cc(Nc2cc(C)[nH]n2)nc(-c2cccc(C)c2)n1 [Compound 65, N^4-(2-methoxyethyl)-N^4-methyl-N^6-(5-methyl-1H-pyrazol-3-yl)-2-m-tolylpyrimidine-4,6-diamine] | ≤ 1 | ≤ 1 | 1 to 10 |  |  |  |
| COCCN(C)c1cc(Nc2cc(C)[nH]n2)nc(-c2ccccc2Cl)n1 [Compound 63] | ≤ 1 | ≤ 1 | 1 to 10 |  |  |  |
| Cc1cc(Nc2cc(N(C)CCN(C)C)nc(-c3ccc(C(C)(C)C)cc3)n2)n[nH]1 [Compound 103, 2-(4-tert-butylphenyl)-N^4-(2-(dimethylamino)ethyl)-N^4-methyl-N^6-(5-methyl-1H-pyrazol-3-yl)pyrimidine-4,6-diamine] |  | ≤ 1 |  | ≤ 0.1 | ≤ 1 |  |
| COCCN(C)c1cc(Nc2cc(C)[nH]n2)nc(-c2ccc(OC)cc2)n1 [Compound 67, N^4-(2-methoxyethyl)-2-(4-methoxyphenyl)-N^4-methyl-N^6-(5-methyl-1H-pyrazol-3-yl)pyrimidine-4,6-diamine] | ≤ 1 | ≤ 1 | 1 to 10 |  |  |  |
| Cc1cc(Nc2cc(N(C)CCN(C)C)nc(-c3cccc(N(C)C)c3)n2)n[nH]1 [Compound 107] |  |  | 1 to 10 | ≤ 0.1 |  | ≤ 0.1 |
| COCCN(C)c1cc(Nc2cc(C)[nH]n2)nc(-c2cccc(OC)c2)n1 [Compound 68, N^4-(2-methoxyethyl)-2-(3-methoxyphenyl)-N^4-methyl-N^6-(5-methyl-1H-pyrazol-3-yl)pyrimidine-4,6-diamine] | ≤ 1 | ≤ 1 |  |  | ≤ 1 |  |
| Cc1cc(Nc2cc(N3CCN(C)CC3)nc(-c3ccccc3C(F)(F)F)n2)n[nH]1 [Compound 102, N-(5-methyl-1H-pyrazol-3-yl)-6-(4-methylpiperazin-1-yl)-2-(2-(trifluoromethyl)phenyl)pyrimidin-4-amine] | ≤ 1 |  | 1 to 10 |  |  | ≤ 0.1 |
| COCCN(C)c1cc(Nc2cc(C)[nH]n2)nc(-c2ccc(N(C)C)cc2)n1 [Compound 118, 2-(4-(dimethylamino)phenyl)-N^4-(2-methoxyethyl)-N^4-methyl-N^6-(5-methyl-1H-pyrazol-3-yl)pyrimidine-4,6-diamine] |  | ≤ 1 | 1 to 10 | ≤ 0.1 |  |  |
| Cc1cc(Nc2cc(N(C)CCN(C)C)nc(-c3ccc4ccccc4c3)n2)n[nH]1 [Example 142, N^4-(2-(dimethylamino)ethyl)-N^4-methyl-N^6-(5-methyl-1H-pyrazol-3-yl)-2-(naphthalen-2-yl)pyrimidine-4,6-diamine] |  | ≤ 1 |  | ≤ 0.1 | ≤ 1 |  |
